A word on the Papp: it is the rate of passage across a membrane or cell layer, normalised by area and donor concentration.

Like-named read-outs stand apart in the source and are kept apart here. Bounds are passed on as bounds.

Data on 16 molecules can be found in PMC7878837, “Generation of Human-Induced Pluripotent Stem Cell-Derived Functional Enterocyte-Like Cells for Pharmacokinetic Studies” (Stem Cell Reports, 2021).

Data set [1] deals with RPChiPS771-derived enterocyte-like cells. As to the kind of experiment: Real-time PCR of marker genes in hiPSC-derived enterocyte-like cells with or without VD3. Type of data set: cell-based, human. The source says: We then used M3-2 for maturation and evaluated the time-dependent expression of marker genes (Figure 4D). […] The expression levels of UDP glucuronosyltransferase 1-1 (UGT1A1) and various isoforms of P450 metabolizing enzymes (CYP2B6, CYP3A4, and CYP3A7) increased in the presence of VD3 compared with the controls without VD3. The expression levels of uptake transporter, SLC15A1, and efflux transporters, ABCB1 and ABCG2, were not affected by VD3.
Cells were fixed in 4% paraformaldehyde (Nacalai Tesque) in PBS, permeabilized with 0.1% Triton X-100 (Nacalai Tesque). The following antibodies were used: anti-CDX2 (1:100, BioGenex, San Ramon, CA, MU392A-UC), anti-VILLIN (1:100, BD Transduction Laboratories, San Diego, 610359), Alexa 568-conjugated, and Alexa 488-conjugated antibodies (1:1000, ThermoFisher).
RNA was extracted from iPS cells using the RNeasy micro-kit or QIAzol (Qiagen, Hilden, Germany) and then treated with DNase (Qiagen). For reverse transcription reactions, 2.5 µg RNA was reverse-transcribed using PrimeScript™ RT Master Mix (Takara Bio). For real-time PCR analysis, the mRNA expression was quantified with either TaqMan Primers and Probe or using SYBR Green on a StepOne Plus (Applied Biosystems, Foster City, CA, USA). β-ACTIN and GAPDH were used as internal controls. Target mRNA levels were expressed as fold-change against human adult small intestine (ASI; ASI=1). Primer details are listed in Supplemental Table S2.
Membrane integrities of human iPSCs derived intestine cells and Caco-2 cells cultured on CVM were measured after the medium change, using a Millicell ERS-2 (Epithelial Volt-Ohm Meter, Millipore).
Transcellular transport assays and measurement of CYP3A metabolite
In Figure 2 and Figure S1, for assessing the transporter activity of P-gp, time-dependent directional (B-to-

Data set [2] can be described thus: Permeability test (Papp) across hiPSC-derived enterocyte-like cell monolayer. The format is in vitro ADME. To be noted: human, M3-2 medium, 37°C 2 h, n = 4. The method, then: The unlabeled compounds were analyzed by LC-MS/MS. […]
Permeability measurements
5 was determined as follows: the culture medium for hiPS-derived enterocyte-like cells was replaced with […]
started by replacing the FBS-containing HBSS buffer with substrate +/- inhibitor and incubated at 37°C for 2 h. The unlabeled compounds were analyzed by LC-MS/MS. The LC-MS/MS system consisted of a Waters ACQUITY UPLC (Waters Corporation, Milford, MA, USA) and a Waters Quattro Ultima mass spectrometer (Waters Corporation). The multiple reaction monitoring modes were used to monitor ions.
The detailed conditions for the analyses of the compounds are shown in Supplemental Table S1. The apparent membrane permeability coefficient (Papp) was calculated as follows. Papp ൌ ௗொௗ௧ ൈ ଵ஺஼బ Where dQ/dt is the amount of the compound permeated per unit of time, A is the surface area of insert membrane (0.33 cm2), and C0 is the initial compound concentration in the donor chamber. Differentiated cells showing TEER >30 Ω・cm2 were used. […]
100ൈቀ1െexp൫െα ൈP௔௣௣ ൯ቁ. Where α is the scaling factor. The fitting curve was calculated by nonlinear regression using Phoenix WinNonlin (Ver. 8.1, Certara, L.P.).

For data set [3] the following is noted: fraction of oral dose absorbed in humans; ref Amidon et al., 1988; Sjöberg et al., 2013; Skolnik et al., 2010; Sugano et al., 2002; Takenaka et al., 2016; Tavelin et al., 2003; Xiao et al., 2019; cited from earlier work.
For data set [4], the target named is T1, P-gp (Homo sapiens, UniProt P08183). The following applies: digoxin 1.27 nM, absence of inhibitor.
The test system of data set [5] is CYP3A4. The following applies: in vitro; ref Andrew Williams et al., 2002; cited from earlier work.
In data set [6] the test system is Caco-2 cells. Also on record: method as in Artursson, 1990. The following applies: ref Artursson, 1990; cited from earlier work.
The test system of data set [7] is T2, P-gp.
T2 construct: transport activities of efflux transporters, P-gp and BCRP, in the ChiPS18-derived enterocyte-like cells; endogenous in cells; host or cells: ChiPS18 human iPSC-derived enterocyte-like cells on CVM inserts
As to the kind of experiment: Rhodamine 123 permeability assay by fluorescence detection. Type of data set: in vitro ADME, human. To be noted: human, not told, day 25, M3-2 with VD3 for the last 48 h (condition #8), read-out: rhodamine 123 flux ratio ([B-to-A transport]/[A-to-B transport]).
Text: (§1) Flux ratio = Papp, basolateral to apical/Papp, apical to basolateral

In data set [8] the target is T1, P-gp. The data set is described as above. The format is in vitro ADME. On the set-up: transport activities of efflux transporters, P-gp and BCRP, in the ChiPS18-derived enterocyte-like cells; endogenous in cells; host or cells: ChiPS18 human iPSC-derived enterocyte-like cells on CVM inserts. The following applies: 10 μM, day 25, absence of Dex (condition #6, 7) or without Dex and DMSO (condition #5).
Text: as §1

The mark [9] stands for this setting: D30 of differentiation, read-out: RPChiPS771 d30 Papp Mean ± SD.
Where [10] appears, read: day 23 of differentiation, read-out: RPChiPS771 d23 Papp Mean ± SD.

T1 sequence (P08183 whole entry): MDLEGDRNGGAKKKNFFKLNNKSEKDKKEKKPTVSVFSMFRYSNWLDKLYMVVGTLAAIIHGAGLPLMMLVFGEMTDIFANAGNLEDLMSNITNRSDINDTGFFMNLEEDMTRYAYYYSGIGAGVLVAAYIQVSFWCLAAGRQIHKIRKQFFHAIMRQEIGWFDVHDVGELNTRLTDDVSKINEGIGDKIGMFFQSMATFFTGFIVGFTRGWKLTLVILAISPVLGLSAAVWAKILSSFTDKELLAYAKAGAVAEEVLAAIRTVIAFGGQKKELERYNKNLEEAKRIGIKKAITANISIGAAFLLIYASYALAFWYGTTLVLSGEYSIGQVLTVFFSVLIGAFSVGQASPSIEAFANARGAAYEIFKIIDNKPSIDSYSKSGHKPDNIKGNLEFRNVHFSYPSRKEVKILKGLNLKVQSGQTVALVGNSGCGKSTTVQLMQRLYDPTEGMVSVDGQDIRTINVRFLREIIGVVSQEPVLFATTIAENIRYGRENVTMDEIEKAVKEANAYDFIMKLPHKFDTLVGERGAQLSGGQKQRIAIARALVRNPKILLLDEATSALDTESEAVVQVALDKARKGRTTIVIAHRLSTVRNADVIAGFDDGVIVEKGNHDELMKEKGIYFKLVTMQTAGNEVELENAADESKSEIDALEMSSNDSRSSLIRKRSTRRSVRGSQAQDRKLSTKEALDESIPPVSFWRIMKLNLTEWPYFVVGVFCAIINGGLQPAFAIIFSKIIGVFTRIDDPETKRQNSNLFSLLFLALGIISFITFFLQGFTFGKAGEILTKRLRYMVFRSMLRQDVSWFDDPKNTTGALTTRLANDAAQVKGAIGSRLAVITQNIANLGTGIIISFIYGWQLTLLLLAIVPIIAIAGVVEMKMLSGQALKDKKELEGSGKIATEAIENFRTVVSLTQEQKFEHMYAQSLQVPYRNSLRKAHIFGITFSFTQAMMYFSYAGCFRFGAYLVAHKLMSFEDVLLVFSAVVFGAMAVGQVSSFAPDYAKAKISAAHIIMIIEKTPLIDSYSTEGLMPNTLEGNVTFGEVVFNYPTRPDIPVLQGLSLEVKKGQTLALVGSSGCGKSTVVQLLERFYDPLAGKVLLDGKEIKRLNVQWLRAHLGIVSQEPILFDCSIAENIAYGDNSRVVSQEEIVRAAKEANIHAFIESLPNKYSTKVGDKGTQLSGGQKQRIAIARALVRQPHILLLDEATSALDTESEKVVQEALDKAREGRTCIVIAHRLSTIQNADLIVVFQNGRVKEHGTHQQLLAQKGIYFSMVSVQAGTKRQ

For the molecule `C=C1/C(=C\C=C2/CCC[C@]3(C)[C@@H]([C@H](C)CCCC(C)(C)O)CC[C@@H]23)C[C@@H](O)C[C@@H]1O` [VD3, 1α,25-dihydroxyvitamin D3], the “expression level of ALPI” value in data set [1] (presence of VD3, M3-2) is “upregulated”. Further, in data set [1] (presence of VD3 compared with controls without VD3, M3-2), the “expression levels of UGT1A1, CYP2B6, CYP3A4 and CYP3A7” value is given as “increased”. The “expression levels of SLC15A1, ABCB1 and ABCG2” value in data set [1] (presence of VD3 vs without, M3-2) is reported as “not affected”.
Regarding `Nc1nc2c(ncn2COCCO)c(=O)[nH]1` [acyclovir], the figures for the Papp at 2 h in data set [2] (setting [9]) and in data set [2] (setting [10]) were 10 ± 6.34 ×10⁻⁶ cm/s and 3.62 ± 0.73 ×10⁻⁶ cm/s, respectively.
Regarding `Cc1cc(=O)n(-c2ccccc2)n1C` [antipyrine], in data set [3], the “Human Fa” value is recorded as 97%. The Papp at 2 h amounted to 41.9 ± 2.2 ×10⁻⁶ cm/s in data set [2] (setting [9]) and 48.4 ± 1.7 ×10⁻⁶ cm/s in data set [2] (setting [10]).
Take `O=C(O)Cc1ccccc1Nc1c(Cl)cccc1Cl` [diclofenac]: the Papp at 2 h was 12 ± 1.2 ×10⁻⁶ cm/s in data set [2] (setting [9]) and 17.4 ± 0.6 ×10⁻⁶ cm/s in data set [2] (setting [10]).
For `C[C@H]1O[C@@H](O[C@H]2[C@@H](O)C[C@H](O[C@H]3[C@@H](O)C[C@H](O[C@H]4CC[C@@]5(C)[C@H](CC[C@@H]6[C@@H]5C[C@@H](O)[C@]5(C)[C@@H](C7=CC(=O)OC7)CC[C@]65O)C4)O[C@@H]3C)O[C@@H]2C)C[C@H](O)[C@@H]1O` [digoxin], in data set [4], the “directional transport (B-to-A vs A-to-B)” value is given as “Basal-to-apical (B-to-A) transport exceeded apical-to-basal (A-to-B) transport”. The figures for the Papp at 2 h in data set [2] (setting [9]) and in data set [2] (setting [10]) were 5.18 ± 0.7 ×10⁻⁶ cm/s and 6.15 ± 0.94 ×10⁻⁶ cm/s, respectively.
In the case of `NC(N)=Nc1nc(CSCCC(N)=NS(N)(=O)=O)cs1` [famotidine], the “Human Fa” value in data set [3] is recorded as 38%. Further, the Papp at 2 h came to 7.42 ± 3.36 ×10⁻⁶ cm/s in data set [2] (setting [9]) and 5.05 ± 1.76 ×10⁻⁶ cm/s in data set [2] (setting [10]).
Consider `NS(=O)(=O)c1cc2c(cc1Cl)NCNS2(=O)=O` [hydrochlorothiazide], for which the Papp at 2 h came out at 9.5 ± 4.92 ×10⁻⁶ cm/s in data set [2] (setting [9]) and 2.1 ± 1.12 ×10⁻⁶ cm/s in data set [2] (setting [10]).
With `COCCc1ccc(OCC(O)CNC(C)C)cc1` (centres unmarked) [metoprolol], the Papp at 2 h in data set [2] (setting [9]) was 25.1 ± 4.8 ×10⁻⁶ cm/s; in data set [2] (setting [10]), 22.6 ± 1.3 ×10⁻⁶ cm/s.
Take `Cc1ncc2n1-c1ccc(Cl)cc1C(c1ccccc1F)=NC2` [midazolam]: the “formation of 1′-OH midazolam by CYP3A4 compared to CYP3A7” value in data set [5] is recorded as > 600 fold.
Regarding `CC(C)(C)NCC(O)COc1cccc2c1CC(O)C(O)C2` (centres unmarked) [nadolol], the “Human Fa” value in data set [3] was 33%. Besides, the Papp at 2 h amounted to 8.96 ± 9.29 ×10⁻⁶ cm/s in data set [2] (setting [9]) and 2.83 ± 1.5 ×10⁻⁶ cm/s in data set [2] (setting [10]).
With `CC(C)NCC(O)COc1cccc2ccccc12` (centres unmarked) [propranolol], the passive permeability in data set [6] is 41.9 ×10⁻⁶ cm/s. The values for the Papp at 2 h in data set [2] (setting [9]) and in data set [2] (setting [10]) were 29.3 ± 2.5 ×10⁻⁶ cm/s and 26 ± 2.7 ×10⁻⁶ cm/s, respectively.
As to `CNC(=C[N+](=O)[O-])NCCSCc1ccc(CN(C)C)o1` [ranitidine], in data set [3], the “Human Fa” value was 50%. For the same molecule, the Papp at 2 h in data set [2] (setting [9]) was found to be 8.3 ± 6.06 ×10⁻⁶ cm/s; in data set [2] (setting [10]), 3.94 ± 0.7 ×10⁻⁶ cm/s.
As for `COC(=O)c1ccccc1-c1c2ccc(=N)cc-2oc2cc(N)ccc12` [rhodamine 123], in data set [7], the efflux ratio at 10 μM is < 2. In addition, the “rhodamine 123 flux ratio ([B-to-A transport]/[A-to-B transport])” value in data set [8] was “low”.
`O=C(O)c1cc(/N=N/c2ccc(S(=O)(=O)Nc3ccccn3)cc2)ccc1O` [sulfasalazine]: the “Human Fa” value in data set [3] was 13%. Further, the Papp at 2 h was 2.65 ± 1.01 ×10⁻⁶ cm/s in data set [2] (setting [9]) and 1.02 ± 0.4 ×10⁻⁶ cm/s in data set [2] (setting [10]).
With `CCN1CCCC1CNC(=O)c1cc(S(N)(=O)=O)ccc1OC` (centres unmarked) [sulpiride], the Papp at 2 h was determined as 8.39 ± 4.96 ×10⁻⁶ cm/s in data set [2] (setting [9]) and 3.15 ± 1.18 ×10⁻⁶ cm/s in data set [2] (setting [10]).
As to `C[C@]12CC[C@H]3[C@@H](CCC4=CC(=O)CC[C@@]43C)[C@@H]1CC[C@@H]2O` [testosterone], the “Human Fa” value in data set [3] is recorded as 100%.
